Calls of active or inactive are those of the source.
What was measured:
[1] = target: T1, Runt-related transcription factor 1/Core-binding factor subunit beta (Homo sapiens, UniProt Q01196+Q13951); test: Runt domain/CBFb-SMMHC interaction disruptors – biochemical, TR-FRET (AID 1438); type: protein assay
[2] = target: T1, Runt-related transcription factor 1/Core-binding factor subunit beta; test: disruptors of Runt domain/CBFb-SMMHC interaction – biochemical, FRET, Cerulean-Runt, Venus-CBFb-SMMHC, uHTS, […] (AID 1434); type: protein assay
[3] = target: Dual specificity protein phosphatase 3 (Homo sapiens, UniProt P51452); test: SAR VHR1 Fluorescent Assay for In Vitro dose response studies Set 2. [Related pubchem assays (depositor defined):AID1654, AID1661, AID1878]; type: functional
[4] = target: T2, Tyrosine-protein phosphatase non-receptor type 7 (Homo sapiens, UniProt P35236); test: SAR analysis of chemical inhibitors of HePTP using a Fluorescent assay - Set 2. [Related pubchem assays (depositor defined):AID1059, AID1077, AID1661, AID2085, AID521]; type: functional
T2 sequence (P35236 whole entry): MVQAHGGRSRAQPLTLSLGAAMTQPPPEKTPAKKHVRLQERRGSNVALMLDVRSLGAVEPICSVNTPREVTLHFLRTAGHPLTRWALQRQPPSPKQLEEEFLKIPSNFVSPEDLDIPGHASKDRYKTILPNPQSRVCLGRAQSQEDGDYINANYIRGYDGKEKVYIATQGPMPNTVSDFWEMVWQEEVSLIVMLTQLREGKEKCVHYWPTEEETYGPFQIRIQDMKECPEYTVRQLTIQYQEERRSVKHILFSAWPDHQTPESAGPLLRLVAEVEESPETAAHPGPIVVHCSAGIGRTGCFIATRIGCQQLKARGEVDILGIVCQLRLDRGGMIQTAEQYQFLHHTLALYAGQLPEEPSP

Troponin, cardiac muscle = Troponin, cardiac muscle (Homo sapiens, UniProt P19429+P45379+P63316); test: Fluorescence-based biochemical high throughput dose response assay for activators of the calcium sensitivity of cardiac Regulated Thin Filaments (RTF). [Related pubchem assays (depositor defined):AID493008, AID493018, AID504382, AID504383]; type: protein-complex assay
[5] = target: T3, E3 ubiquitin-protein ligase XIAP (Homo sapiens, UniProt P98170); test: Counter Screen using XIAP-Bir3 for Chemical Antagonists of Bir1/2 domains of IAP-family anti-apoptotic proteins. [Related pubchem assays (depositor defined):AID1018, AID1449, AID1514, AID1638, AID1749, AID1750, AID488957, AID488963]
[6] = target: T3, E3 ubiquitin-protein ligase XIAP; test: small molecules displacing peptide from XIAP – biochemical, IAP family, fluorescence polarization (AID 1018); type: functional
[7] = target: DNA damage-inducible transcript 3 protein (Mus musculus, UniProt P35639); type: functional, Cricetulus griseus
X-box-binding protein 1 = X-box-binding protein 1 (Homo sapiens, UniProt P17861); type: functional, Cricetulus griseus;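 note: confirmatory dose-response counter-screen serving a CHOP assay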
[8] = target: T4, G-protein coupled receptor 35 (Homo sapiens, UniProt Q9HC97); test: SAR analysis of Antagonists of the GPR35 Receptor using an Image-Based Assay - Set 4. [Related pubchem assays (depositor defined):[…]]; type: functional
[9] = target: T4, G-protein coupled receptor 35; test: SAR analysis of Agonists of the GPR35 Receptor using an Image-Based Assay - Set 3. [Related pubchem assays (depositor defined):AID1961, AID1965]; type: functional
[10] = target: G-protein coupled receptor 55 (Homo sapiens, UniProt Q9Y2T6); test: SAR analysis of selective Agonists of GPR55 using an Image-Based Assay - Set 2. [Related pubchem assays (depositor defined):AID1961, AID1965]; type: functional
Cannabinoid receptor 1 [11] = target: T5, Cannabinoid receptor 1 (Homo sapiens, UniProt P21554); test: SAR analysis of antagonists of the Cannabinoid Receptor 1 using an Image-Based Assay - Set 3. [Related pubchem assays (depositor defined):AID1961, AID1965]; type: functional
Cannabinoid receptor 1 [12] = target: T5, Cannabinoid receptor 1; test: SAR analysis of agonists of the Cannabinoid Receptor 1 using an Image-Based Assay - Set 3. [Related pubchem assays (depositor defined):AID1961, AID1965]; type: functional
Cannabinoid receptor 2 [13] = target: T6, Cannabinoid receptor 2 (Homo sapiens, UniProt P34972); test: SAR analysis of agonists of the Cannabinoid Receptor 2 using an Image-Based Assay - Set 2. [Related pubchem assays (depositor defined):AID1961, AID1965]; type: functional
Cannabinoid receptor 2 [14] = target: T6, Cannabinoid receptor 2; test: SAR analysis of antagonists of the Cannabinoid Receptor 2 using an Image-Based Assay - Set 2. [Related pubchem assays (depositor defined):AID1961, AID1965]; type: functional
[15] = target: T2, Tyrosine-protein phosphatase non-receptor type 7; test: inhibition of hematopoietic tyrosine phosphatase HePTP – biochemical, set 2, SAR follow-up (AID 449736); type: functional
[16] = target: T7, Tyrosine-protein phosphatase non-receptor type 22 (Homo sapiens, UniProt Q9Y2R2); test: inhibition of lymphoid tyrosine phosphatase LYP – biochemical, pCAP fluorogenic substrate, fluorescence, set 3, SAR follow-up (AID 449727); type: functional
T7 sequence (Q9Y2R2 whole entry): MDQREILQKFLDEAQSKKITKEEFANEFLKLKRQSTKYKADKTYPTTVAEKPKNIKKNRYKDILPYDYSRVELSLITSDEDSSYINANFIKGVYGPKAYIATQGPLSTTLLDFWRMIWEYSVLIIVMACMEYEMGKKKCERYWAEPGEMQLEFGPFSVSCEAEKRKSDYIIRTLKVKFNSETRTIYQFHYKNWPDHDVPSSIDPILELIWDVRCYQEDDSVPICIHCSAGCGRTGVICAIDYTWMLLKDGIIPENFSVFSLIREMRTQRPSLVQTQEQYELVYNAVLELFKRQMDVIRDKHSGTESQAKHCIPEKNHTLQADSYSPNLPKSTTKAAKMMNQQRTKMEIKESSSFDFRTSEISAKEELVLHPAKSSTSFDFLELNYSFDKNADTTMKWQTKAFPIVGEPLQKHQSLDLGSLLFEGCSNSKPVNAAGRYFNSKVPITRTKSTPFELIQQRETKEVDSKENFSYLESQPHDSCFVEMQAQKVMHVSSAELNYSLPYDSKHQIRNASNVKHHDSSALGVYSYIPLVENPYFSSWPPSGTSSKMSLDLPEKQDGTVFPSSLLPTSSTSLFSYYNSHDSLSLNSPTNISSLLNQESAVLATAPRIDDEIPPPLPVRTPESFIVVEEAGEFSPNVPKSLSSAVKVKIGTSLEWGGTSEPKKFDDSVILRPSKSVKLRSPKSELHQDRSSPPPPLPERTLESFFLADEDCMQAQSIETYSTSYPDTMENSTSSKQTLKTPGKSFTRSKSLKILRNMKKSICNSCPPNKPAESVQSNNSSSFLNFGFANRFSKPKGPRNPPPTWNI

[17] = target: T7, Tyrosine-protein phosphatase non-receptor type 22; test: SAR LYP1 Fluorescent Assay using OMFP substrate for In Vitro dose response studies - Set 2. [Related pubchem assays (depositor defined):AID1779, AID1784, AID2140, AID449726, AID488869]; type: functional
[18] = target: T7, Tyrosine-protein phosphatase non-receptor type 22; test: SAR LYP1 Fluorescent Assay using OMFP substrate for In Vitro dose response studies - Set 3. [Related pubchem assays (depositor defined):AID1779, AID1784, AID2140, AID2686]; type: functional
[19] = target: T7, Tyrosine-protein phosphatase non-receptor type 22; test: SAR LYP1 Fluorescent Assay using pCAP substrate for In Vitro dose response studies - Set 2. [Related pubchem assays (depositor defined):AID1779, AID1784, AID2135, AID449727]; type: functional
[20] = target: Tyrosine-protein phosphatase non-receptor type 12 (Homo sapiens, UniProt Q05209); test: SAR Selectivity Analysis of small molecule inhibitors of PEST using pCAP in a fluorescence assay. [Related pubchem assays (depositor defined):AID1779, AID1784, AID2135]; type: functional
[21] = luciferase reporter signal suppression in cells – H4 neuroglioma cells, luminescence, dose response (AID 1990); type: functional, cell-based
[22] = Luminescence Cell-Based Dose Retest to Confirm Activators of 5'UTR Stem-Loop Driven Alpha-Synuclein mRNA Translation in H4 Neuroglioblastoma Cells. [Related pubchem assays (depositor defined):AID1813, AID1829]; type: functional
[23] = Luminescence Cell-Based Dose HTS Response to Identify Inhibitors of 5'UTR Stem-Loop Driven Prion Protein mRNA Translation in H4-C Neuroglioblastoma Cells. [Related pubchem assays (depositor defined):AID1814, AID1827]; type: functional
[24] = Luminescence Cell-Based Dose Response HTS to Identify Activators of 5'UTR Stem-Loop Driven Prion Protein mRNA Translation in H4-C Neuroglioblastoma Cells. [Related pubchem assays: 1829 (Project Summary), 1814 (Primary HTS)]; type: functional
BJ [25] = test: BJ-TERT-LT-ST fibroblast viability loss – cell-based, RAS-independent, luminescence, dose response (AID 1935); type: functional; settings: Homo sapiens;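 note: BJ fibroblasts immortalized with TERT plus LT and ST oncogenes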
Transthyretin = Transthyretin (Homo sapiens, UniProt P02766); test: Luminescence-based cell-based high throughput dose response assay to identify activators of Transthyretin (TTR) transcription.; type: functional
[26] = Luminescence Cell-Based Dose Response HTS to Identify Activators of Luciferase Translation or Activity in H4-C Neuroglioblastoma Cells. [Related pubchem assays: 1829 (Project Summary), 1814 (Primary HTS)]; type: functional
[27] = Luminescence Cell-Based Dose Response HTS to Identify Inhibitors of 5'UTR Stem-Loop Driven Prion Protein mRNA Translation in H4 Neuroglioblastoma Cells. [Related pubchem assays: 1827 (Project Summary), 1813 (Primary HTS)]; type: functional
BJ [28] = test: BJ-TERT fibroblast viability loss – cell-based, RAS-independent, luminescence, dose response (AID 1933); type: functional; settings: Homo sapiens
BJ [29] = test: cells; type: functional, cell-based; settings: Homo sapiens
[30] = HEK-293T viability loss after treatment – luminescence, T-cell screen hits, cytotoxicity control for TCR NF-kB inhibitor project, dose response (AID 489026); type: functional, cell-based;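 note: cells exposed to compound about 14 hours before the viability readout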
[31] = alpha-synuclein stem-loop luciferase translation blockers – H4 neuroglioma cells, luminescence, confirmation (AID 1988); type: functional, cell-based
[32] = DRD fibroblast viability loss – cell-based, non-viral oncogenic, luminescence, dose response (AID 1934); type: functional; settings: Homo sapiens
[33] = Luminescence Cell-Based Dose Confirmation HTS to Identify Inhibitors of 5'UTR Stem-Loop Driven Alpha-Synuclein mRNA Translation in H4 Neuroglioblastoma Cells. [Related pubchem assays: 1827 (Project Summary), 1813 (Primary HTS)]; type: functional
[34] = Luminescence Cell-Based Dose Response HTS to Identify Inhibitors of Luciferase Translation or Activity in H4-C Neuroglioblastoma Cells. [Related pubchem assays: 1813 (Primary HTS), 1827 (Project Summary)]; type: functional
CAAX prenyl protease 2 = target: T8, CAAX prenyl protease 2 (Saccharomyces cerevisiae S288c, UniProt Q03530); type: biochemical
T8 sequence (Q03530 whole entry): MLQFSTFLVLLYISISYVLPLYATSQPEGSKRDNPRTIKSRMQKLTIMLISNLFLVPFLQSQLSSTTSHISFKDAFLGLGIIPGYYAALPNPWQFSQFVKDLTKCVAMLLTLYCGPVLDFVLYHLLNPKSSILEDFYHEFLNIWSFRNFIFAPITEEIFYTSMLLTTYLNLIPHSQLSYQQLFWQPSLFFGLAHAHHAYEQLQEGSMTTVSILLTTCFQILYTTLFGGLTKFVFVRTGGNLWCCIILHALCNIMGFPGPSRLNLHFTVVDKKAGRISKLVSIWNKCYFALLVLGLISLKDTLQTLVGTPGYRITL

[35] = toxicity toward cultured mammalian cells – cell-based, plate reader, cherry-pick samples, cytotoxicity control, dose response (AID 504397); type: functional

N=c1c(C(=O)NCc2ccc(F)cc2)cc2c(=O)n3ccccc3nc2n1Cc1ccco1
active: IC50 [1] 43.5 µM | IC50 [2] 3.78 µM

COc1cccc(CN2CCN(C(=S)Nc3ccc(S(N)(=O)=O)cc3)CC2)c1
inactive: IC50 [3] > 100 µM | IC50 [4] > 100 µM

O=[n+]1c2c(n([O-])c3ccccc31)CCC2
inactive: EC50 (Troponin, cardiac muscle) > 71.5 µM

CC(C)CNS(=O)(=O)c1ccc(CCC(=O)N2CCN(Cc3ccccc3)CC2)cc1
> 100 µM (not active): IC50 [6]
inactive: IC50 [5] > 100 µM

COc1cccc(Nc2ncnc3c2cnn3-c2cccc(C)c2)c1
10 µM: Absolute IC50 (CHOP) [7] | Absolute IC50 (XBP1) (X-box-binding protein 1)

Cc1ccccc1N1CCN(C(=O)c2cc(S(=O)(=O)N3CCCCC3)ccc2N2CCCC2)CC1
inactive: IC50 [8] > 32 µM | EC50 [9] > 32 µM | EC50 [10] > 32 µM | IC50 (Cannabinoid receptor 1 [11]) > 32 µM | EC50 (Cannabinoid receptor 1 [12]) > 32 µM | EC50 (Cannabinoid receptor 2 [13]) > 32 µM | IC50 (Cannabinoid receptor 2 [14]) > 32 µM

COc1ccccc1NS(=O)(=O)c1cccc(C(=O)NN=Cc2ccc(OCC(=O)O)cc2)c1
inactive: IC50 [15] > 100 µM | IC50 [16] > 100 µM | IC50 [17] > 100 µM | IC50 [18] > 100 µM | IC50 [19] > 100 µM | IC50 [20] > 100 µM

CCOC(=O)Nc1nc(-c2ccccc2)c(C(=O)c2ccc(Cl)cc2)s1
inactive: EC50 (Transthyretin) > 167 µM | IC50 [30] > 80 µM
inconclusive: EC50 [22] 1.76 µM | EC50 [24] 1.95 µM | EC50 (BJ [25]) 1.45 µM | EC50 [26] 2.32 µM | EC50 (BJ [28]) 1.26 µM
active: EC50 [21] 5.3 µM | EC50 [23] 1.95 µM | EC50 [27] 3.25 µM | EC50 (BJ [29]) 15.6 µM | EC50 [31] 0.108 µM | EC50 [32] 1.28 µM | EC50 [33] 1.76 µM | EC50 [34] 2.32 µM

O=C(Nc1ccc(N2CCOCC2)c(Cl)c1)c1cc2ccccc2o1
active: AC50 (CAAX prenyl protease 2) 3.46 µM | AC50 [35] 260 µM
